The record followed here is ChEMBL document CHEMBL1201862, “PubChem BioAssay data set” (2004).

Among the test systems are HOP-92; Hs-578T; EKVX; UACC-257; NCI-H522; UO-31; MDA-N; SK-MEL-2; SF-295; OVCAR-4; HCT-15; MDA-MB-231; PC-3; MOLT-4; KM12; COLO 205; LOX IMVI; NCI-H226; TK-10.
Experiment in all cases: DTP human tumour cell line panel, 48 h

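1) Cells in 96-well plates. 2) Compound, 48 h, 5 concentrations. 3) Linear interpolation between surrounding doses. 4) Unreached endpoint = highest concentration. GI50 is the concentration that inhibits growth by half.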 Calls of active or inactive are those of the source. Rule as the data show it: active = GI50 up to about 1.1 µM and inactive = higher. Non-standard residues stand in square brackets, D forms with d. Residues, ends and D or L forms follow the SMILES beside them. *: point of attachment. Ac5c = NC1(C(=O)O)CCCC1; Boc = CC(C)(C)OC(=O)*; tBu = CC(C)(C)*

By GI50 is commonly meant the concentration that inhibits growth by half. Regarding `COc1ccc(CN2C[C@H]3[C@@H](CC(=O)O[C@H]3C)CC2=O)cc1`, the GI50 with HOP-92, in the test on Hs-578T, in the test on EKVX, with UACC-257, in the test on NCI-H522 and with UO-31 was > 100 µM (inactive) throughout. The GI50 was > 100 µM (inactive) in the test with MDA-N; > 100 µM (inactive) with SK-MEL-2; > 100 µM (inactive) with SF-295; > 100 µM (inactive) in the test on OVCAR-4; above 100 µM in the test with HCT-15; > 100 µM (inactive) in the test on MDA-MB-231. Moreover, the GI50 in the test on PC-3, in the test on MOLT-4, in the test with KM12 and in the test with COLO 205 was > 100 µM (inactive) in each case.

As to `N=c1c2c(ncn1N)Oc1c(c(-c3ccccc3)nn1-c1ccccc1)C2c1ccc(Cl)cc1` (stereo not drawn), the GI50 with HOP-92 is 1.71 µM (inactive); in the test with Hs-578T it was 1.64 µM (inactive); in the test with LOX IMVI it was 1.48 µM (inactive); in the test on EKVX it was 1.82 µM (inactive); in the test with UACC-257 it was 1.76 µM (inactive); in the test with UO-31, 1.64 µM (inactive). The GI50 in the test with MDA-N is 1.82 µM (inactive); in the test on NCI-H226, 1.98 µM (inactive); in the test with SK-MEL-2, 1.69 µM (inactive); in the test on SF-295, 1.66 µM (inactive); in the test with OVCAR-4, 1.56 µM (inactive); with HCT-15 it was 1.31 µM. In addition, the GI50 is 1.76 µM (inactive) in the test with TK-10; 2.63 µM (inactive) in the test with MDA-MB-231; 1.63 µM (inactive) in the test on PC-3; 0.895 µM (active) with MOLT-4; 1.6 µM (inactive) in the test with KM12; 0.508 µM (active) with COLO 205.

As to `O=S(=O)(O)c1ccc(NN(c2c(O)ccc3ccccc23)S(=O)(=O)O)cc1`, the GI50 in the test on Hs-578T, in the test with LOX IMVI, with EKVX, in the test on UACC-257, with NCI-H522 and with UO-31 was > 100 µM (inactive) throughout. Moreover, the GI50 in the test with MDA-N is > 100 µM (inactive); in the test on NCI-H226 it was > 100 µM (inactive); with SK-MEL-2, > 100 µM (inactive); in the test on SF-295, > 100 µM (inactive); in the test on OVCAR-4, > 100 µM (inactive); in the test on HCT-15, above 100 µM. Also, the GI50 with TK-10, with MDA-MB-231, in the test on PC-3, in the test on MOLT-4, with KM12 and with COLO 205 was > 100 µM (inactive) throughout.

Take `O=C1/C(=C/c2ccc(Br)s2)NC(=S)N1CN1CCCCC1`: the GI50 in the test with Hs-578T was 51.4 µM (inactive); in the test with LOX IMVI, 21.5 µM (inactive); in the test with EKVX it was 9.35 µM (inactive); in the test with UACC-257, 33.3 µM (inactive); in the test on NCI-H522, 23.3 µM (inactive); in the test with UO-31, 24.5 µM (inactive). Also, the GI50 is 33.9 µM (inactive) with MDA-N; 32 µM (inactive) in the test on NCI-H226; 0.678 µM (active) in the test with SK-MEL-2; 30.5 µM (inactive) in the test with SF-295; 36.8 µM (inactive) with OVCAR-4; 27.9 µM with HCT-15. Further, the GI50 is 34.5 µM (inactive) in the test with TK-10; 62.4 µM (inactive) in the test with MDA-MB-231; 28.2 µM (inactive) in the test with PC-3; 23.4 µM (inactive) with MOLT-4; 35.6 µM (inactive) in the test on KM12; 18.1 µM (inactive) with COLO 205.

As for `C[C@@H]1OC2(O)[C@@H]3CCCN3C(=O)N(Cc3ccccc3)N2C1=O` (stereo partly drawn), the GI50 in the test on HOP-92, in the test on Hs-578T, in the test with LOX IMVI, in the test with EKVX, in the test with UACC-257 and in the test with MDA-N was > 100 µM (inactive) in each case. Besides, the GI50 in the test on NCI-H226 was > 100 µM (inactive); in the test with SK-MEL-2, > 100 µM (inactive); in the test with SF-295, > 100 µM (inactive); with OVCAR-4, > 100 µM (inactive); in the test with HCT-15 it was above 100 µM; in the test on TK-10 it was > 100 µM (inactive). Besides, the GI50 with MDA-MB-231, with PC-3, in the test on MOLT-4, in the test with KM12 and with COLO 205 was > 100 µM (inactive) throughout.

Regarding `CCOc1ccc2c(c1)/C(=C(\C(Cl)=C(Cl)Cl)[N+](=O)[O-])N2`, the GI50 in the test on Hs-578T was > 100 µM (inactive); in the test on EKVX it was 37.6 µM (inactive); with UACC-257, > 100 µM (inactive); with UO-31 it was > 100 µM (inactive); with MDA-N it was > 100 µM (inactive); in the test on NCI-H226, > 100 µM (inactive). Also, the GI50 in the test with SK-MEL-2 was > 100 µM (inactive); in the test with SF-295 it was > 100 µM (inactive); in the test with OVCAR-4, 33.2 µM (inactive); in the test on HCT-15, above 100 µM; in the test with MDA-MB-231, > 100 µM (inactive); in the test on PC-3, > 100 µM (inactive). Further, the GI50 with MOLT-4, with KM12 and in the test with COLO 205 was > 100 µM (inactive) each time.

Turning to `CN1CCN(Cc2ccc(C(=S)Nc3ccccc3)s2)CC1`, the GI50 in the test on Hs-578T was 39.2 µM (inactive); with LOX IMVI, 15.7 µM (inactive); with EKVX it was 65.3 µM (inactive); in the test with UACC-257 it was 33.5 µM (inactive); in the test on NCI-H522, 31 µM (inactive); with UO-31, 36.3 µM (inactive). For the same molecule, the GI50 is 35.6 µM (inactive) in the test with MDA-N; 41.8 µM (inactive) with SK-MEL-2; 32.3 µM (inactive) in the test with SF-295; 54.1 µM (inactive) with OVCAR-4; 21 µM with HCT-15; 69.7 µM (inactive) in the test on PC-3. Moreover, the results for the GI50 in the test on MOLT-4, in the test with KM12 and in the test with COLO 205 were 36.8 µM (inactive), 36.3 µM (inactive) and 22.3 µM (inactive), respectively.

As for `N=C(/C=C/c1ccc(-c2cn3cc(/C=C/C(=N)N4CCCC4)ccc3n2)cc1)N1CCCC1`, the GI50 in the test with HOP-92 is > 100 µM (inactive); in the test with Hs-578T it was 56.5 µM (inactive); with EKVX, > 100 µM (inactive); with UACC-257, 78.7 µM (inactive); in the test with NCI-H522 it was 31 µM (inactive); in the test on UO-31 it was > 100 µM (inactive). In addition, the GI50 in the test with MDA-N was > 100 µM (inactive); in the test on NCI-H226, > 100 µM (inactive); in the test with SK-MEL-2, > 100 µM (inactive); in the test with SF-295, > 100 µM (inactive); in the test with OVCAR-4, > 100 µM (inactive); with HCT-15, above 100 µM. For the same molecule, the GI50 was > 100 µM (inactive) in the test with TK-10; > 100 µM (inactive) in the test on MDA-MB-231; > 100 µM (inactive) with PC-3; > 100 µM (inactive) with MOLT-4; 60.3 µM (inactive) in the test with KM12; > 100 µM (inactive) in the test on COLO 205.

As to `NC(=O)NCCCC(NC(=O)OCCCCCCn1ccc(=O)[nH]c1=O)C(=O)O` (stereo not drawn), the GI50 in the test on HOP-92, in the test with Hs-578T, with LOX IMVI, in the test with EKVX, in the test with UACC-257 and in the test on UO-31 was > 100 µM (inactive) in each case. Besides, the GI50 in the test with MDA-N is > 100 µM (inactive); with NCI-H226, > 100 µM (inactive); in the test with SK-MEL-2, > 100 µM (inactive); in the test on SF-295 it was > 100 µM (inactive); with OVCAR-4 it was > 100 µM (inactive); in the test on HCT-15, above 100 µM. For the same molecule, the GI50 with TK-10, in the test on MDA-MB-231, with PC-3, in the test with MOLT-4, in the test on KM12 and in the test with COLO 205 was > 100 µM (inactive) in each case.

Turning to `Cc1ccc2nc(-c3ccccc3)cc(=O)n2c1`, the GI50 in the test on HOP-92 is > 100 µM (inactive); in the test with Hs-578T it was > 100 µM (inactive); in the test on EKVX, 81.8 µM (inactive); in the test with UACC-257, > 10 µM (inactive); with NCI-H522, > 100 µM (inactive); with MDA-N, > 100 µM (inactive). The GI50 in the test with NCI-H226 is 64.6 µM (inactive); in the test on SF-295, > 100 µM (inactive); in the test with OVCAR-4, > 100 µM (inactive); with HCT-15, above 100 µM; with TK-10, > 100 µM (inactive); with MDA-MB-231, > 100 µM (inactive). The GI50 in the test on PC-3, with MOLT-4, with KM12 and in the test with COLO 205 was > 100 µM (inactive) in each case.

Consider `CC1(C)OC(=O)C2(O1)C(=O)C1CCCCC12` (stereo not drawn), for which the GI50 is 32.4 µM (inactive) in the test on Hs-578T; 21 µM (inactive) with EKVX; 40 µM (inactive) with UACC-257; 12 µM (inactive) in the test with NCI-H522; 82.2 µM (inactive) with UO-31; 30.9 µM (inactive) in the test with MDA-N. Further, the GI50 is 45.4 µM (inactive) with NCI-H226; > 100 µM (inactive) in the test with SK-MEL-2; > 100 µM (inactive) in the test on SF-295; 9.73 µM (inactive) with OVCAR-4; 86.9 µM with HCT-15; 70.5 µM (inactive) in the test with TK-10. The GI50 with MDA-MB-231 was 3.84 µM (inactive); in the test on PC-3, > 100 µM (inactive); in the test with MOLT-4, > 100 µM (inactive); in the test on KM12, > 100 µM (inactive); in the test on COLO 205 it was 20.1 µM (inactive).

Regarding `CC(OC(C)(C)C)C1NC(=O)C(CCCCNC(=O)OC(C)(C)C)NC(=O)C(Cc2c[nH]c3ccccc23)NC(=O)C(Cc2ccccc2)NC(=O)C2(CCCC2)NC(=O)C(Cc2ccccc2)NC1=O` (stereo not drawn) (cyclo([Ac5c]FWK(Boc)T(tBu)F); configuration not given here), the GI50 in the test on HOP-92 was 23.5 µM (inactive); in the test with Hs-578T, 33.3 µM (inactive); with LOX IMVI, 19.2 µM (inactive); in the test on EKVX, 41.5 µM (inactive); in the test on UACC-257, 20.7 µM (inactive); in the test on NCI-H522, 21.4 µM (inactive). The GI50 in the test with MDA-N was 43.2 µM (inactive); with NCI-H226 it was 21.5 µM (inactive); in the test with SF-295 it was 29.9 µM (inactive); in the test on OVCAR-4, 49.9 µM (inactive); in the test with HCT-15, above 100 µM; in the test on TK-10, 24.8 µM (inactive). Also, the GI50 with MDA-MB-231 is 17.5 µM (inactive); with PC-3, 26.9 µM (inactive); with MOLT-4, 7.71 µM (inactive); in the test with KM12 it was 29.4 µM (inactive); in the test with COLO 205, 20.4 µM (inactive).
